Among the data in doi:10.1101/2025.06.03.657556v1 (biorxiv, 2025) are Kd and IC50 values, retold here.

One experiment addresses RhoA (Homo sapiens, UniProt P61586). Nature of the experiment: surface plasmon resonance. In kind it is binding. (SPR reads the build-up and loss of mass on a sensor chip optically.)
Another experiment addresses RhoA (HEK 293F cells) (Homo sapiens, UniProt P61586). The experiment can be described thus: fluorescent RhoA-GTP probe, F488/F405 ratio, HEK […] cells. In kind it is cell-based.

RhoA, sequence (P61586 1-190): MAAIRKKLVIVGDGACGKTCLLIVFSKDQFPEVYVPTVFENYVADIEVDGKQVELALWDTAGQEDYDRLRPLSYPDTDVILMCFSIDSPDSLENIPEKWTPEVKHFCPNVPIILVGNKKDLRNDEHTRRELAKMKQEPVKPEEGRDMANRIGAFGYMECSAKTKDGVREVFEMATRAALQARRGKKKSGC
RhoA (HEK 293F cells), sequence (P61586 1-190): as above

In the case of `CCc1cccc([C@@H](O)CO)c1` [AH001], the dissociation constant (Kd) – broadly, the concentration at which binding is half-saturated – on RhoA stood at 73.2 nM. Moreover, the IC50 (commonly the concentration at which inhibition is half-maximal) at RhoA (HEK 293F cells) was found to be 25.7 ± 1.18 nM.
